US7612107B2, “Treatment and inhibition of disease conditions using flexible heteroarotinoids” (The Board of Regents of the University of Oklahoma, priority 2005, dated 2009)
Read-outs that look alike come from different tables or passages of the source.

Legend:
[1] = tested on: SW962 vulvar carcinoma cultures; assay: Annexin-V-Fluos apoptosis assay; type: cell-based; details: cancer cell lines
Method: SW962 vulvar carcinoma cultures were treated with 10 μM of the indicated retinoid or the same volume of solvent. At the specified times, the cultures were labeled with Annexin-V-Fluos and propidium iodide (PI), and the number of apoptotic cells was quantified using dual-laser flow cytometric analysis.
(§1) The TUNEL assay was used to evaluate apoptosis in fixed, paraffin embedded, cut sections of the treated and control cultures (FIG. 17). […] These two cellular outcomes appeared to be mutually exclusive.

[2] = tested on: organotypic cultures of human ovarian cancer cell lines and primary cultures; assay: Ovarian carcinoma organotypic cultures (TUNEL, histology); type: cell-based
Method: FIG. 17. Retinoid effects on ovarian carcinoma organotypic cultures. Organotypic cultures of OVCAR-3 (A, B, E, F, I and J), Caov-3 (C and G), SK-OV-3 (D and H), and O2 (K and L) were grown in the absence (−, top row and K) or presence (+, middle row and I, J and L) of retinoid HetA4 at a concentration of 1 μM in the media. All sections were stained with H&E except for […], which was stained with PAS to detect glycoproteins and glandular differentiation, and J, which was stained with the TUNEL assay to detect apoptosis. All magnifications are 40×.
To test our hypotheses, we evaluated the effects of clinically achievable concentrations of 4-HPR and Flex-Hets on growth, differentiation and apoptosis in ovarian tissue. A series of compounds with a variety of receptor activation profiles were evaluated. In order to evaluate therapeutic effects, we developed an organotypic culture model of ovarian tumors by growing established cell lines and primary cultures inside collagen gels. Monolayer cultures of cells are not accurate representations of in vivo tissue because they lack the types of interactions that cells have with other cells and with the extracellular matrix in vivo. These interactions are known to influence gene expression and thus the constitution and behavior of cells. In our organotypic model, the growth of tumor cells inside the collagen allows a representation of tumors that have invaded stromal tissue. In the presence of fibroblasts, established cell lines and primary cultures of ovarian cancer formed colonies inside the collagen, while normal or benign ovarian epithelial cells remained as single cells inside the collagen. Human ovarian cancer cell lines (OVCAR-3, Caov-3, SK-OV-3, A2780, UCI 101) and primary human cultures (borderline ovarian tumor (O1), serous papillary tumor (O2), benign ovarian cyst (O3)) were cultured inside and on top of a collagen gel seeded with 3T3 fibroblasts for one week. After further incubation in the presence or absence of 1 μM retinoid (media concentration) for 3, 7 or 14 days, cultures were fixed and sectioned for immunohistochemical analysis.
as §1

[3] = tested on: NCI human tumor cell line panel; assay: SHetA2 cytotoxicity in NCI human tumor cell line panel; type: cell-based
Method: The SHetA2 compound was evaluated in the National Cancer Institute (NCI) human tumor cell line panel by the Developmental Therapeutics Program (DTP). The human tumor cell lines were grown in RPMI 1640 medium containing 5% fetal bovine serum and 2 mM L-glutamine. Cells were inoculated into 96 well microtiter plates at densities ranging from 5,000 to 40,000 cells/well depending on the doubling time of individual cell lines and incubated for 24 h prior to addition of SHetA2. After 24 h, two plates of each cell line were fixed in situ with TCA, to represent a measurement of the cell population for each cell line at the time of drug addition (Tz). Drugs were dissolved in dimethyl sulfoxide (DMSO) and diluted in complete medium containing 50 μg/ml gentamicin, prior to addition to the culture wells. […] […] The absorbance was read on an automated plate reader at a wavelength of 515 nm. Using the seven absorbance measurements (time zero, (Tz), control growth, (C), and test growth in the presence of drug at the five concentration levels (Ti)), the GI50 was calculated from [(Ti−Tz)/(C−Tz)]×100=50. […]

B16 mouse melanoma = assay: B16 melanoma syngeneic tumor model; type: in vivo
Method: (§2) FIG. 12. Various Xenograft tumors stained with CD34 antibodies (brown) to identify endothelium. The B16 mouse melanoma cell line was established as a syngeneic tumor in an immunocompetent mouse model and the human Caki renal cancer and A2780 ovarian xenograft tumors in immunocompromised mice. The treated mice were gavaged with 60 mg/kg/day SHetA2 and the untreated were gavaged with solvent only. The tumors were excised and sections were stained with the anti-CD34 antibody to detect endothelial cells (brown stain).
(§3) Survival was the primary endpoint of those studies. […] Tumor growth was the primary endpoint of the renal cancer study.

Raldh2-/- embryos = details: for No. of −/− rescued / No. of −/− unrescued: E10.25; for Teratogenesis: mouse, in vivo, po
Method: Briefly, retinoids were dissolved in corn oil and administered orally to timed-pregnant Raldh2_/_mice at 12-h intervals on E7.25, E7.75, and E8.25. Dosages varied from 0.025 to 25 mg/kg. At E10.25, embryos were analyzed morphologically to determine whether Raldh2_/_embryos were rescued or whether wild-type embryos had suffered teratogenesis. Detection of embryonic RA was performed in situ in embryos carrying the RARE-lacZ RA-reporter gene by staining for beta-galactosidase activity for 10 h (45).
A mouse model that lacks retinaldehyde dehydrogenase (Raldh2) due to null mutations was used to test the ability of Flex-Hets to substitute for retinoic acid (RA) and induce birth defects. […] We examined the relative ability of all-trans-RA, 9-cis-RA, receptor-specific synthetic retinoids and retinoic acid receptor independent Flex-Hets to rescue the Raldh2_/_embryonic lethal phenotype.

[4] = tested on: Caki renal cancer xenografts; assay: Caki renal cancer xenograft tumor model; type: in vivo, mouse
Method: as §2
FIG. 20. Mice harboring Caki renal cancer xenografts were treated with 60 mg/kg/day SHetA2 or PEG400 vehicle for 15 days. After another 15 days of growth, the tumors were removed, fixed, embedded and sections. Sections were stained with PAS to identify glycoproteins and lysosomes. The untreated tumor is on the left and the treated tumor is on the right.
as §3

Thrombospondin 4 (TSP4) = assay: Real time rt-PCR and Western blot validation, thrombospondin 4; type: cell-based; details: OVCAR-3 1 μM (rt-PCR); A2780 10 μM (Western)

SMILES: CC1(C)CC(C)(C)c2cc(NC(=S)Nc3ccc([N+](=O)[O-])cc3)ccc2S1 [SHetA2]
- Induction of apoptosis (Annexin-V-Fluos) [1]: same concentration range as 4-HPR
- Induction of apoptosis (TUNEL) in organotypic cultures ([2]; 1 μM retinoid in media): Apoptosis was induced
- Level of apoptosis relative to the other retinoids (TUNEL) ([2]; 1 μM retinoid in media): highest level of apoptosis
- Rank as regulator of growth, differentiation and apoptosis among eleven retinoids ([2]; 1 μM, 3, 7 or 14 days): most potent regulator of growth, differentiation and apoptosis
- percent growth levels ([3]; 10 and 100 μM SHetA2, majority of cell lines): negative percent growth levels
- GI50 values ([3]; 55 cell lines, 9 cancer types, 48 h): micromolar range
- Survival (B16 mouse melanoma): improved survival
- Rescue of Raldh2−/− embryos (in words) (Raldh2-/- embryos; 2.5 mg/kg): no rescue
- Rescue of Raldh2−/− embryos (in words) (Raldh2-/- embryos; 10 or 25 mg/kg): no rescue
- No. of −/− rescued (Raldh2-/- embryos; Dose 2.5 mg/kg oral): 0
- No. of −/− unrescued (Raldh2-/- embryos; Dose 2.5 mg/kg oral): 1
- No. of −/− rescued (Raldh2-/- embryos; Dose 10 mg/kg oral): 0
- No. of −/− unrescued (Raldh2-/- embryos; Dose 10 mg/kg oral): 5
- No. of −/− rescued (Raldh2-/- embryos; Dose 25 mg/kg oral): 0
- No. of −/− unrescued (Raldh2-/- embryos; Dose 25 mg/kg oral): 1
- Teratogenesis (Raldh2-/- embryos; 2.5 mg/kg): 0
- Teratogenesis (Raldh2-/- embryos; 10 mg/kg): 0
- Teratogenesis (Raldh2-/- embryos; 25 mg/kg): 0
- PAS stain of renal xenograft tumors ([4]; 60 mg/kg/day for 15 days, treated vs untreated tumors): increase in general glycoprotein expression and lysosomal staining
- Tumor growth ([4]; renal cancer model): decreased tumor growth
- Development of blood vessels inside tumors (anti-CD34 staining) ([4]; renal, oral 60 mg/kg/day): inhibited the development of blood vessels
- Expression of TSP-4 at the RNA and protein levels (Thrombospondin 4 (TSP4)): inhibit expression
